The values below come from US20260207645A1, “USE OF INTEGRIN A5B1 AS TARGET IN SCREENING OF DRUGS FOR PREVENTING AND/OR TREATING BONE LOSS” (The Hong Kong Polytechnic University, priority 2023, published 2026).

Experiment [1] has as its system BMSCs. Description: F-actin cytoskeleton (phalloidin staining, confocal) in BMSCs under microgravity. It is filed as cell-based. Conditions: microgravity 3 days. The protocol:
Testing procedure: BMSCs were cultured in osteogenic medium. […] The representative images were captured at mid-plane of the cells and visualized using a confocal laser scanning microscope (magnification: 400×, scale bar: 25 μm). Hoechst counter-staining (blue; DAPI) was applied for determination of single cells.

For experiment [2], the system named is differentiated BMSCs. Description: quantitative analysis of differentiation activity (ALP, RhoA, Rac1) of BMSCs under normal gravity and microgravity. It is filed as cell-based. The note with it: microgravity. As for the experimental part: Testing procedure: BMSCs were cultured in osteogenic medium. […] The representative images were captured at mid-plane of the cells and visualized using a confocal laser scanning microscope (magnification: 400×, scale bar: 25 μm). Hoechst counter-staining (blue; DAPI) was applied for determination of single cells. […] The quantitative analysis of the differentiation activity of BMSCs under normal gravity and microgravity is shown in FIG. 6, where FIG. 6a is the ALP activity analysis relative to the positive control group, FIG. 6b is the RhoA activity analysis in total protein, and FIG. 6c is the Rac1 activity analysis in total protein. The data in FIGS. 6a, 6b, and 6c are presented as mean values±SEM. Statistical analysis was performed using one-way […]<0.001; versus control: *p<0.05, ###p<0.001 (n=3).

For experiment [3], the target named is T1, integrin α5β1 (Homo sapiens, UniProt P05556+P08648).
T1 construct: Soluble integrin α5β1 (1.0 μg/ml) (R&D Systems, MN, USA); purchased R&D Systems
Description: competitive solid-phase binding ELISA (soluble integrin α5β1 vs coated fibronectin). Conditions: fibronectin-coated plate, soluble integrin α5β1 1.0 μg/ml; read-out: IC50 for competing with fibronectin bound on integrin α5β1.

Where [4] appears, read: growth factor, concentration not given.

In the case of `COc1ccc(-c2oc3c(CC=C(C)C)c(O[C@@H]4O[C@H](CO)[C@@H](O)[C@H](O)[C@H]4O)cc(O)c3c(=O)c2O[C@@H]2O[C@@H](C)[C@H](O)[C@@H](O)[C@H]2O)cc1` [icariin], the F-actin polymerization result in experiment [1] (10 nM) is “stimulated F-actin polymerization”. The F-actin polymerization entry in experiment [1] (0.1 μM) is reported as “stimulated F-actin polymerization”. For the same compound, in experiment [2] (differentiated BMSCs), the ALP activity result is given as “significantly increase”, the Rac1 activity entry is reported as “significantly increase” and the RhoA activity result is “significantly increase”. Also, the “differentiation of BMSCs” value in experiment [2] (10 nM) is recorded as “restore the differentiation”. The “differentiation of BMSCs” value in experiment [2] (100 nM) is listed as “restore the differentiation”.

With `CC(C)=CCc1c(O)cc(O)c2c(=O)c(-c3ccc(O)cc3)coc12` [8-prenylgenistein], the IC50 (commonly the concentration that inhibits the measured activity by half) in experiment [3] is 390 ± 280 nM.

`CC(C)=CCc1c(O)cc(O)c2c1O[C@H](c1ccc(O)cc1)CC2=O` [8-prenylnaringenin]: in experiment [3], the IC50 was found to be 7.6 ± 3.92 nM.

Take `C[C@]12CC[C@@H]3c4ccc(O)cc4CC[C@H]3[C@@H]1CC[C@@H]2O` [E2, reference compound]: the F-actin polymerization entry in experiment [1] (setting [4]) is recorded as “not”.

IGF-1: growth factor, positive control: the F-actin polymerization entry in experiment [1] (setting [4]) is “stimulated F-actin polymerization”.
